Reference: BindingDB's records for PubMed 36812150 (China Pharmaceutical University, 2023)

Target: Sucrase-isomaltase, intestinal (Rattus norvegicus, UniProt P23739)
Assay: Binding affinity to sucrase in rat small intestinal brush border membrane vesicles assessed as inhibition constant using sucrose as substrate incubated for 30 mins by glucose-oxidase method

Sequence of Sucrase-isomaltase, intestinal (P23739 1-1013 limits assumed): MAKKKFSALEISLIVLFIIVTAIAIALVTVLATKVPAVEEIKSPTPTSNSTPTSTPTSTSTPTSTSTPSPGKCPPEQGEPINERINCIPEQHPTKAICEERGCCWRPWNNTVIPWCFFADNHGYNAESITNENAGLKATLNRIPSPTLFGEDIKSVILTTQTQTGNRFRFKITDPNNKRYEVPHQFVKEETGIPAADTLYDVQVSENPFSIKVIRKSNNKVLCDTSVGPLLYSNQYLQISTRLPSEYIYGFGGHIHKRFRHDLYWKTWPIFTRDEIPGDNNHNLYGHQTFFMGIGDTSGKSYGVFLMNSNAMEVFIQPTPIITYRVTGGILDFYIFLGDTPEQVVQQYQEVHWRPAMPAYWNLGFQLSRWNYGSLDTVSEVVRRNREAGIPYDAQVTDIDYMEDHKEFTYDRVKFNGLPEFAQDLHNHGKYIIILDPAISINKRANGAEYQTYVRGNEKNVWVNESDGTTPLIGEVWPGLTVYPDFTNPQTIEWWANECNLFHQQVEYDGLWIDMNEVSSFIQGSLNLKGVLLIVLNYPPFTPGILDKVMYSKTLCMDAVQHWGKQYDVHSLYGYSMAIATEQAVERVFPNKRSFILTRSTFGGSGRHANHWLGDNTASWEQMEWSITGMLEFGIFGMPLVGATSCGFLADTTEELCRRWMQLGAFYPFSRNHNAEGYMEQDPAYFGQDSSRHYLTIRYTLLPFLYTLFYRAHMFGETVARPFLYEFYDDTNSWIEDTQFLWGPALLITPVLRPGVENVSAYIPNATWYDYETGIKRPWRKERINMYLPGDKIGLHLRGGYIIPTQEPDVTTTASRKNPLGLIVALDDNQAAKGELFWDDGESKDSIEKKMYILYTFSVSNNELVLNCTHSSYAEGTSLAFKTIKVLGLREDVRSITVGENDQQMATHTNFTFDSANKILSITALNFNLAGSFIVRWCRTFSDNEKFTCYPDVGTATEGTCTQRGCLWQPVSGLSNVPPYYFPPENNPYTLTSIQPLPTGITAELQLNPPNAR
Sequence of Sucrase-isomaltase, intestinal (P23739 1014-1841 limits assumed): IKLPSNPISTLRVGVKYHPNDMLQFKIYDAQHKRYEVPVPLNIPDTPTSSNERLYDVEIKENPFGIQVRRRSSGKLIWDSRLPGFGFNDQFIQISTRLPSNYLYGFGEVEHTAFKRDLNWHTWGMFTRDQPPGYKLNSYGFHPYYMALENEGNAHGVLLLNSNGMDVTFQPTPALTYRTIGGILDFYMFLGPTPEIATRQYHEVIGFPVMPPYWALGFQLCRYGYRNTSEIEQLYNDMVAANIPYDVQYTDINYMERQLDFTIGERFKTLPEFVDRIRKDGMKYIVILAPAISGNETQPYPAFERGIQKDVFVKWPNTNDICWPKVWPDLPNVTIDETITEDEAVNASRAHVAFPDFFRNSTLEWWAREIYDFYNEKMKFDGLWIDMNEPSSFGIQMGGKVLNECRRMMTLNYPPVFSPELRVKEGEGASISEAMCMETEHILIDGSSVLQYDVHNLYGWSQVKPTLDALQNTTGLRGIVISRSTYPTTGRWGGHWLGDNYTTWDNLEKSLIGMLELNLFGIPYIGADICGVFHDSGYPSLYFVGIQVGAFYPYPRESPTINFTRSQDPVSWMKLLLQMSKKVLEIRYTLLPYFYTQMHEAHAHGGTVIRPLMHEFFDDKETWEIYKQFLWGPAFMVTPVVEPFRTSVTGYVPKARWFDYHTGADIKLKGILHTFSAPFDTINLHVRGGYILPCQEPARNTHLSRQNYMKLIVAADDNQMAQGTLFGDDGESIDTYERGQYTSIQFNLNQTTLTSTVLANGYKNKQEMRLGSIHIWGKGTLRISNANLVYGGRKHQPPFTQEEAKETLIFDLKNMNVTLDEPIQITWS

Structure (SMILES): OC[C@@H]1[C@@H](O)[C@H](O)C[S@+]1C[C@@H](O)[C@H]1OC(c2ccccc2)OC[C@H]1O (stereo not given in full)
- Ki: 310 nM

Structure (SMILES): O=[N+]([O-])c1ccccc1C1OC[C@@H](O)[C@@H]([C@H](O)C[S@@+]2C[C@@H](O)[C@H](O)[C@H]2CO)O1 (stereo not given in full)
- Ki: 160 nM

Structure (SMILES): OC[C@@H]1[C@@H](O)[C@H](O)C[S@+]1C[C@@H](O)[C@H]1OC(c2ccccc2C(F)(F)F)OC[C@H]1O (stereo not given in full)
- Ki: 190 nM

Structure (SMILES): OC[C@@H]1[C@@H](O)[C@H](O)C[S@+]1C[C@@H](O)[C@H]1OC(c2ccccc2Cl)OC[C@H]1O (stereo not given in full)
- Ki: 210 nM

Structure (SMILES): OC[C@@H]1[C@@H](O)[C@H](O)C[S@+]1C[C@@H](O)[C@H]1OC(c2ccccc2F)OC[C@H]1O (stereo not given in full)
- Ki: 240 nM
